The source of these data is PubChem BioAssay (NCI).

Test systems include 786-0 renal; HL-60(TB) leukemia; HOP-92 NSCLC; HT29 colon; OVCAR-3 ovarian; PC-3 prostate; SF-539 CNS; SK-MEL-2 melanoma; SK-OV-3 ovarian; SNB-75 CNS.
Test in all cases: NCI anticancer screen, dose series, 48 h

SMILES strings stand for the structures.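 Tested at 5 concentrations; 48 h exposure; 96-well plates; endpoints linearly interpolated, else capped at highest concentration. GI50 is the concentration that inhibits growth by half. Definition used: TGI = concentration required for complete inhibition of growth.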

Turning to `COc1ccc(CNc2nc3cc(N)cc(N)c3nc2-c2ccccc2)cc1OC`, the GI50 with 786-0 renal was 15.7 µM; with HL-60(TB) leukemia, 3.17 µM; with HOP-92 NSCLC, 13.4 µM; in the experiment on HT29 colon, 7.26 µM; with OVCAR-3 ovarian, 1.31 µM; with PC-3 prostate, 10.9 µM. The GI50 in the experiment with SF-539 CNS was 18.9 µM; in the experiment on SK-MEL-2 melanoma, 13.9 µM; with SK-OV-3 ovarian, 22.8 µM; with SNB-75 CNS it was 14.1 µM. The TGI is 33.5 µM with 786-0 renal; over 89.9 µM in the experiment on HL-60(TB) leukemia; 29.8 µM in the experiment with HOP-92 NSCLC; 46.2 µM with HT29 colon; 3.33 µM in the experiment with OVCAR-3 ovarian; 29.1 µM in the experiment on PC-3 prostate. Moreover, the TGI amounted to 41.1 µM with SF-539 CNS, 49.5 µM in the experiment on SK-MEL-2 melanoma, 45.6 µM in the experiment on SK-OV-3 ovarian and 37.4 µM with SNB-75 CNS.
With `N=C1c2nc3n(c2C(=O)c2nc4n(c21)CCCC4)CCCC3`, the GI50 with 786-0 renal was 32.2 µM; in the experiment on HL-60(TB) leukemia, 31 µM; in the experiment with HOP-92 NSCLC, 52.8 µM; in the experiment on HT29 colon, 2.56 µM; with OVCAR-3 ovarian, 27.1 µM; with PC-3 prostate, over 68.8 µM. In addition, the GI50 in the experiment with SF-539 CNS was 2.42 µM; in the experiment on SK-MEL-2 melanoma it was 23.4 µM; in the experiment on SK-OV-3 ovarian, 34.2 µM; with SNB-75 CNS it was 1.83 µM. Also, the TGI in the experiment on 786-0 renal was over 89.3 µM; in the experiment with HL-60(TB) leukemia it was over 84.3 µM; in the experiment with HOP-92 NSCLC, over 100 µM; with HT29 colon, 5.51 µM; in the experiment on OVCAR-3 ovarian it was over 100 µM; with PC-3 prostate, over 100 µM. In addition, the TGI with SF-539 CNS was 5.2 µM; in the experiment with SK-MEL-2 melanoma, over 65 µM; with SK-OV-3 ovarian, over 100 µM; with SNB-75 CNS, 3.57 µM.
For `CCC1=C[C@@H]2CN(C1)Cc1c([nH]c3ccccc13)[C@@](C(=O)OC)(c1cc3c(cc1OC)N(C=O)[C@H]1[C@@](O)(C(=O)OC)[C@H](OC(C)=O)[C@]4(CC)[C@@H]5C[C@@H]5CN5CC[C@]31[C@@H]54)C2`, the GI50 in the experiment on 786-0 renal is 0.00587 µM; in the experiment with HL-60(TB) leukemia, under 0.000625 µM; in the experiment with HOP-92 NSCLC, 0.00629 µM; with HT29 colon it was under 0.000625 µM; in the experiment with OVCAR-3 ovarian, under 0.000625 µM; in the experiment on PC-3 prostate, 0.000826 µM. For the same molecule, the GI50 is 0.000646 µM in the experiment with SF-539 CNS, under 0.000625 µM in the experiment on SK-MEL-2 melanoma, under 0.000625 µM in the experiment on SK-OV-3 ovarian and 0.000766 µM in the experiment with SNB-75 CNS. The TGI was over 3.19 µM in the experiment on 786-0 renal; under 0.000625 µM in the experiment with HL-60(TB) leukemia; 0.226 µM in the experiment with HOP-92 NSCLC; over 6.25 µM in the experiment on HT29 colon; over 6.25 µM in the experiment with PC-3 prostate; 0.0201 µM in the experiment with SF-539 CNS. For the same molecule, the TGI with SK-MEL-2 melanoma was over 6.25 µM; in the experiment on SNB-75 CNS it was over 5.74 µM.
Regarding `Cc1ncc([N+](=O)[O-])n1CCNS(=O)(=O)CCCn1ccnc1[N+](=O)[O-]`, the TGI in the experiment on 786-0 renal, with HL-60(TB) leukemia, with HOP-92 NSCLC, with HT29 colon, in the experiment on OVCAR-3 ovarian and with PC-3 prostate was over 100 µM throughout. In addition, the TGI with SF-539 CNS, in the experiment with SK-MEL-2 melanoma, in the experiment with SK-OV-3 ovarian and in the experiment with SNB-75 CNS was over 100 µM in each case.
As for `CC(C)(C)C(=O)Nc1ccccc1I(=O)=O`, the GI50 in the experiment on 786-0 renal, in the experiment with HL-60(TB) leukemia, in the experiment on HOP-92 NSCLC, in the experiment with HT29 colon, in the experiment on OVCAR-3 ovarian and with PC-3 prostate was over 100 µM in each case. Besides, the GI50 with SF-539 CNS, with SK-MEL-2 melanoma, in the experiment on SK-OV-3 ovarian and in the experiment with SNB-75 CNS was over 100 µM each time. Moreover, the TGI in the experiment with 786-0 renal, in the experiment on HL-60(TB) leukemia, in the experiment on HOP-92 NSCLC, in the experiment on HT29 colon, with OVCAR-3 ovarian and in the experiment on PC-3 prostate was over 100 µM each time. Besides, the TGI with SF-539 CNS, with SK-MEL-2 melanoma, with SK-OV-3 ovarian and in the experiment on SNB-75 CNS was over 100 µM each time.
Consider `C=C1CC[C@@]2(C#N)[C@H]3[C@H](CC[C@@H]2C)[C@@H](C)C[C@@H](CC(C)(C)C#N)[C@H]13`, for which the GI50 is 2.33 µM with 786-0 renal; 2.48 µM with HL-60(TB) leukemia; 0.2 µM with HOP-92 NSCLC; 0.469 µM with HT29 colon; 2.88 µM in the experiment with OVCAR-3 ovarian; 0.283 µM in the experiment on PC-3 prostate. The GI50 was 0.609 µM in the experiment with SF-539 CNS, 6.67 µM in the experiment on SK-MEL-2 melanoma, 6.6 µM with SK-OV-3 ovarian and 0.215 µM in the experiment with SNB-75 CNS. The TGI in the experiment on 786-0 renal worked out at 23.3 µM; with HL-60(TB) leukemia, 29.5 µM; in the experiment on HOP-92 NSCLC, 0.68 µM; with HT29 colon, 16.1 µM; in the experiment with OVCAR-3 ovarian, 28.8 µM; with PC-3 prostate, 30.5 µM. The TGI with SF-539 CNS is 17.5 µM; with SK-MEL-2 melanoma, 40.2 µM; with SK-OV-3 ovarian, 77.9 µM; with SNB-75 CNS, 0.705 µM.
In the case of `CC([C@H]1CCC2C3CCC4C[C@@H](NC=O)CC[C@]4(C)C3CC[C@@]21C)N(C)C` (stereo partly drawn), the GI50 with 786-0 renal was 1.99 µM; in the experiment on HL-60(TB) leukemia, 2.23 µM; in the experiment with HOP-92 NSCLC, 1.13 µM; in the experiment with HT29 colon, 0.595 µM; in the experiment with OVCAR-3 ovarian, 2.55 µM; in the experiment with PC-3 prostate, 2.47 µM. In addition, the GI50 is 1.37 µM with SF-539 CNS, 5.71 µM in the experiment with SK-MEL-2 melanoma, 3.96 µM in the experiment on SK-OV-3 ovarian and 4.68 µM with SNB-75 CNS. In addition, the TGI came out at 4.15 µM in the experiment on 786-0 renal; 6.79 µM with HL-60(TB) leukemia; 7.61 µM with HOP-92 NSCLC; 2.42 µM in the experiment with HT29 colon; 9.01 µM in the experiment with OVCAR-3 ovarian; 16.4 µM in the experiment with PC-3 prostate. In addition, the TGI in the experiment with SF-539 CNS turned out to be 2.79 µM; with SK-MEL-2 melanoma, 13.8 µM; in the experiment on SK-OV-3 ovarian, 13.5 µM; in the experiment on SNB-75 CNS it was 18.2 µM.
Take `Cc1cc(C)c(O)c(CNCCCCCCNCc2cc(C)cc(C)c2O)c1`: the GI50 is 1.42 µM in the experiment on 786-0 renal; 1.84 µM in the experiment with HL-60(TB) leukemia; 1.25 µM in the experiment with HOP-92 NSCLC; 1.73 µM in the experiment with HT29 colon; 1.64 µM in the experiment on OVCAR-3 ovarian; 1.99 µM in the experiment on PC-3 prostate. Also, the GI50 in the experiment on SF-539 CNS is 1.62 µM; in the experiment with SK-MEL-2 melanoma it was 1.91 µM; in the experiment on SK-OV-3 ovarian, 1.83 µM; with SNB-75 CNS, 1.33 µM. The TGI is 2.92 µM in the experiment with 786-0 renal; 3.77 µM in the experiment on HL-60(TB) leukemia; 4.01 µM in the experiment with HOP-92 NSCLC; 3.82 µM in the experiment with HT29 colon; 3.42 µM with OVCAR-3 ovarian; 4.28 µM in the experiment with PC-3 prostate. In addition, the TGI with SF-539 CNS came to 3.17 µM; with SK-MEL-2 melanoma it was 3.67 µM; with SK-OV-3 ovarian it was 3.67 µM; with SNB-75 CNS, 2.63 µM.
